Experimental data from PubChem BioAssay (NCI).
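Five concentrations, 48 hours, 96-well plates. GI50: concentration for 50% inhibition of growth. At the TGI there is no net growth.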

Columns and labels:
Assay in all cases: DTP human tumour cell line panel, 48 h
[1] = tested on: PC-3 prostate
[2] = tested on: SW-620 colon
[3] = tested on: TK-10 renal
[4] = tested on: HS 578T breast
[5] = tested on: A498 renal
[6] = tested on: LOX IMVI melanoma
[7] = tested on: HOP-62 NSCLC
[8] = tested on: SK-OV-3 ovarian
[9] = tested on: MALME-3M melanoma
[10] = tested on: NCI-H23 lung

For `CCN1CCN(Cc2ccc3cc(C(=O)Nc4cc(NC(=O)c5ccc6c(c5)OCCO6)ccc4F)ccc3n2)CC1`, the GI50 [1] was 0.0593 µM, the TGI [1] was 11.6 µM and the GI50 [2] was 0.0462 µM. It also gave a TGI [2] of 11 µM, a GI50 [3] of 0.0429 µM and a TGI [3] of 4.29 µM. For the same compound, the GI50 [4] was 0.0329 µM, the TGI [4] was 0.308 µM and the GI50 [5] was 0.0159 µM. For the same compound, the TGI [5] was 0.265 µM, the GI50 [6] was 0.0343 µM and the TGI [6] was 1.43 µM. The GI50 [7] was 0.0617 µM, the TGI [7] was 12 µM and the GI50 [8] was 0.0341 µM. It also gave a TGI [8] of 1.14 µM, a GI50 [9] of 0.0394 µM and a TGI [9] of 0.42 µM. For the same compound, the GI50 [10] was 0.121 µM and the TGI [10] was 5.27 µM.

With `N=C1N=Nc2nc(C3(c4nc5n(c4O)C(=N)N=N5)Cc4ccccc4C3=O)c(O)n21` (centres undefined) the TGI [1] was > 100 µM, the TGI [2] was > 100 µM and the TGI [3] was > 100 µM. The TGI [4] was > 100 µM, the TGI [5] was > 43.9 µM and the TGI [6] was > 100 µM. For the same compound, the TGI [7] was > 100 µM, the TGI [8] was > 100 µM and the TGI [9] was > 100 µM. For the same compound, the TGI [10] was > 100 µM.

`CCC1=C[C@H]2CN(CCc3c([nH]c4ccccc34)[C@@](C(=O)OC)(c3cc4c(cc3OC)N(C)[C@H]3[C@@](O)(C(=O)OC)[C@H](OC(C)=O)[C@]5(CC)[C@@H]6C[C@@H]6CN6CC[C@]43[C@@H]65)C2)C1` showed a GI50 [1] of 0.0178 µM, a TGI [1] of 4.24 µM and a GI50 [2] of 0.0428 µM. It also gave a TGI [2] of 3.89 µM, a GI50 [3] of 3.33 µM and a TGI [3] of 8.13 µM. The GI50 [4] was 0.053 µM, the TGI [4] was 4.16 µM and the GI50 [5] was 0.035 µM. The TGI [5] was 0.183 µM, the GI50 [6] was 0.0229 µM and the TGI [6] was 3.4 µM. The GI50 [7] was 0.0249 µM, the TGI [7] was 4.43 µM and the GI50 [8] was 0.0358 µM. It also gave a TGI [8] of 12.2 µM, a GI50 [9] of 0.249 µM and a TGI [9] of 5.82 µM. The GI50 [10] was 0.121 µM and the TGI [10] was > 25 µM.

With `Cc1cc(Cl)ccc1Nc1nc(C(F)(F)F)ccc1C(=O)N/N=C/c1ccc(F)cc1` the GI50 [1] was 1.85 µM, the TGI [1] was 8.64 µM and the GI50 [2] was 2.06 µM. It also gave a TGI [2] of 13.5 µM, a GI50 [3] of 1.7 µM and a TGI [3] of 7.6 µM. For the same compound, the GI50 [4] was 2.23 µM, the TGI [4] was 11.7 µM and the GI50 [5] was 1.48 µM. It also gave a TGI [5] of 5.92 µM, a GI50 [6] of 1.34 µM and a TGI [6] of 10.6 µM. It also gave a GI50 [7] of 1.68 µM, a TGI [7] of 6.65 µM and a GI50 [8] of 1.34 µM. The TGI [8] was 6.58 µM, the GI50 [9] was 1.11 µM and the TGI [9] was 4.7 µM. For the same compound, the GI50 [10] was 2.57 µM and the TGI [10] was 11.5 µM.

`CC1=C(C(=O)Nc2ccc(Cl)c(Cl)c2)C(c2cccc(O)c2)NC(=S)N1` (centres undefined) was tested, and the GI50 [1] was 9.54 µM, the TGI [1] was 31.4 µM and the GI50 [2] was 12.5 µM. It also gave a TGI [2] of 33.2 µM, a GI50 [4] of 9.5 µM and a TGI [4] of 24.9 µM. It also gave a GI50 [6] of 7.09 µM, a TGI [6] of 13.8 µM and a GI50 [7] of 17.3 µM. For the same compound, the TGI [7] was 31.2 µM, the GI50 [8] was 10 µM and the TGI [8] was 20.4 µM.

Work on `COc1ccc2c(c1)N(CCC1CCCCN1C)c1ccccc1S2` (centres undefined) yielded a TGI [1] of 22.7 µM, a TGI [2] of 35.5 µM and a TGI [3] of 28.1 µM. It also gave a TGI [4] of 26.5 µM, a TGI [5] of 23.8 µM and a TGI [6] of 25.9 µM. It also gave a TGI [7] of 31.2 µM, a TGI [8] of 31 µM and a TGI [9] of 33.7 µM. It also gave a TGI [10] of 35.2 µM.

`COC(=O)/C(Br)=C/c1c[nH]c2ccc(Br)cc12` showed a GI50 [1] of 11.2 µM, a TGI [1] of 27.8 µM and a GI50 [2] of 14.7 µM. It also gave a TGI [2] of 27.8 µM, a GI50 [3] of 19 µM and a TGI [3] of 49.4 µM. It also gave a GI50 [4] of 1.71 µM, a TGI [4] of 17.1 µM and a GI50 [5] of 7.98 µM. For the same compound, the TGI [5] was 20.9 µM, the GI50 [6] was 7.18 µM and the TGI [6] was 20.2 µM. The GI50 [7] was 17.6 µM, the TGI [7] was 51.9 µM and the GI50 [8] was 17.7 µM. For the same compound, the TGI [8] was 53.9 µM, the GI50 [9] was 14.5 µM and the TGI [9] was 28.3 µM. It also gave a GI50 [10] of 15.3 µM and a TGI [10] of 33 µM.

With `Cc1cc(Cl)ccc1Nc1nc(C(F)(F)F)ccc1C(=O)N/N=C/c1c(Cl)cccc1Cl` the GI50 [1] was 0.268 µM, the GI50 [2] was 0.322 µM and the TGI [2] was > 100 µM. For the same compound, the GI50 [3] was 0.316 µM, the TGI [3] was 1.79 µM and the GI50 [4] was 0.63 µM. For the same compound, the TGI [4] was > 30 µM, the GI50 [5] was 0.473 µM and the TGI [5] was > 22.8 µM. The GI50 [6] was 0.257 µM, the TGI [6] was > 100 µM and the GI50 [7] was 0.876 µM. The TGI [7] was > 27.2 µM, the GI50 [8] was 0.486 µM and the TGI [8] was 3.29 µM. It also gave a GI50 [9] of 0.494 µM, a TGI [9] of 2.5 µM and a GI50 [10] of 0.489 µM. For the same compound, the TGI [10] was > 100 µM.

With `COc1ccc2c(c1)N(CCO)C1=C(C(=O)OC1)C2c1cccc(Br)c1` (centres undefined) the GI50 [1] was 0.0618 µM, the TGI [1] was 54.4 µM and the GI50 [2] was 0.046 µM. The TGI [2] was > 100 µM, the GI50 [3] was 0.349 µM and the TGI [3] was 83.6 µM. For the same compound, the GI50 [4] was 0.209 µM, the TGI [4] was > 100 µM and the GI50 [5] was 0.0293 µM. The TGI [5] was 1.21 µM, the GI50 [6] was 0.0814 µM and the TGI [6] was 18.8 µM. The GI50 [7] was 0.132 µM, the TGI [7] was > 76.3 µM and the GI50 [8] was 0.0913 µM. It also gave a TGI [8] of 19 µM, a GI50 [9] of 0.0536 µM and a TGI [9] of 85.7 µM. The GI50 [10] was 0.156 µM and the TGI [10] was > 100 µM.

Compound `Cc1ccc(S(=O)(=O)N2C/C(=C\c3cc(F)cc(F)c3)C(=O)/C(=C/c3cc(F)cc(F)c3)C2)cc1` has a GI50 [1] of 0.22 µM, a TGI [1] of 0.612 µM and a GI50 [2] of 0.0582 µM. It also gave a TGI [2] of 0.283 µM, a GI50 [3] of 0.994 µM and a TGI [3] of 2.99 µM. For the same compound, the GI50 [4] was 0.513 µM, the TGI [4] was > 43.1 µM and the GI50 [5] was 1.57 µM. For the same compound, the TGI [5] was 3.41 µM, the GI50 [6] was 0.175 µM and the TGI [6] was 0.339 µM. For the same compound, the GI50 [7] was 1.5 µM, the TGI [7] was 4.66 µM and the GI50 [8] was 2.3 µM. It also gave a TGI [8] of 7.53 µM, a GI50 [9] of 0.256 µM and a TGI [9] of 0.647 µM. It also gave a GI50 [10] of 1.14 µM and a TGI [10] of 4.14 µM.

`O=C(Nc1cccc(-n2cc(-c3ccncc3)c(-c3ccc(O)c(Cl)c3)n2)c1)Nc1ccc(Cl)c(C(F)(F)F)c1` showed a GI50 [1] of 1.77 µM, a TGI [1] of 4.36 µM and a GI50 [2] of 2.78 µM. For the same compound, the TGI [2] was 7.62 µM, the GI50 [3] was 2.96 µM and the TGI [3] was 7.16 µM. It also gave a GI50 [4] of 1.3 µM, a TGI [4] of 6.24 µM and a GI50 [5] of 2.47 µM. It also gave a TGI [5] of 7.75 µM, a GI50 [6] of 1.61 µM and a TGI [6] of 3.21 µM. It also gave a GI50 [7] of 3.15 µM, a TGI [7] of 9.77 µM and a GI50 [8] of 3.14 µM. For the same compound, the TGI [8] was 9.82 µM, the GI50 [9] was 2.43 µM and the TGI [9] was 7.59 µM. It also gave a GI50 [10] of 2.1 µM and a TGI [10] of 6.5 µM.

With `COc1cc2c(cc1C)NC(=O)/C2=C/c1c(C)nc2sc(C)cn12` the GI50 [1] was 34.3 µM, the TGI [1] was > 100 µM and the GI50 [2] was 63 µM. The TGI [2] was > 100 µM, the GI50 [3] was 68 µM and the TGI [3] was > 100 µM. For the same compound, the GI50 [4] was 49.8 µM, the TGI [4] was > 100 µM and the GI50 [6] was > 100 µM. The TGI [6] was > 100 µM, the GI50 [7] was > 100 µM and the TGI [7] was > 100 µM. The GI50 [8] was > 100 µM, the TGI [8] was > 100 µM and the GI50 [9] was 60.1 µM. The TGI [9] was > 100 µM, the GI50 [10] was 61.7 µM and the TGI [10] was > 100 µM.

In the case of `O=C(Nc1ncc(Cc2ccc(Cl)cc2)s1)c1ccc2c(c1)OCCO2`, the GI50 [1] is reported as 0.047 µM, the TGI [1] is reported as > 100 µM and the GI50 [2] is reported as 0.04 µM. For the same compound, the TGI [2] was > 100 µM, the GI50 [3] was 0.245 µM and the TGI [3] was > 32.5 µM. The GI50 [4] was 0.0422 µM, the TGI [4] was 8.65 µM and the GI50 [5] was 0.0187 µM. The TGI [5] was 0.0809 µM, the GI50 [6] was 0.0742 µM and the TGI [6] was > 100 µM. The GI50 [7] was 0.0948 µM, the TGI [7] was > 41.6 µM and the GI50 [8] was 0.183 µM. The TGI [8] was 92.9 µM, the GI50 [9] was 0.059 µM and the TGI [9] was > 86.5 µM. The GI50 [10] was 0.298 µM and the TGI [10] was > 100 µM.
